Experimental data as given in US20250011300A1, “PIPERAZINYLSULFONYLARYL COMPOUNDS FOR TREATMENT OF BACTERIAL INFECTIONS” (Hoffmann-La Roche Inc., priority 2021, published 2025).
≈ marks a conversion by molar mass, not a printed value.

Columns and labels:
[1] = tested on: K. pneumonia (ATCC 43816); experiment: Minimal Inhibitory Concentration (MIC) assay, K. pneumonia; format: cell-based; settings: Klebsiella pneumoniae; K. pneumoniae ATCC43816, CAMHB, 20 hours at 35° C.; read-out: MIC K. pneumoniae ATCC43816
Protocol: (§1) Example 122: Minimal Inhibitory Concentration Protocol (MIC) Assay
(§2) The in vitro potency of compounds to inhibit E. coli (ATCC 25922) and K. pneumonia (ATCC 43816) growth was assessed by MIC (Minimal Inhibitory Concentration) assay. Samples were prepared from 10 mM DMSO stock solutions. After serial 2-fold dilution in DMSO in a master plate (Greiner, Cat No: 651201), 180 μL sterile distilled water was added to 20 μL each aliquot of the samples. Then 10 μL diluted compounds were transferred into a new assay plate (Costar, 3599).
(§3) The growth medium Cation-Adjusted Mueller Hinton Broth (CAMHB) was prepared by adding the 20 mg per liter CaCl2) and 20 mg per liter MgCl2 into the MHB medium (Jianglai Company, sterilized).
(§4) Vials of each of the test microorganisms were maintained frozen in the vapor phase of a liquid nitrogen freezer. The bacteria E. coli ATCC 25922 (KWIKSTIK, 0335K) and K. pneumonia ATCC 43816 were taken out from liquid nitrogen freezer, then thawed in room temperature, and diluted in the CAMHB medium to achieve a final inoculum of 5×10^5 CFU/mL. 90 μL CAMHB with bacteria was dispensed to the assay plate and pipetted 5 times.
(§5) Then the assay plates were incubated for 20 hours at 35° C. in ambient air. Following incubation, the MIC (μg/mL), the lowest concentration of drug that inhibits visible growth of the microorganism was read and recorded throw the microscope.

[2] = tested on: E. coli (ATCC 25922); experiment: Minimal Inhibitory Concentration (MIC) assay, E. coli; format: cell-based; settings: Escherichia coli, ATCC25922; E. coli ATCC 25922, CAMHB, 20 hours at 35° C.; read-out: MIC E. coli ATCC 25922
Protocol: as §1, §2, §3, §4, §5

[3] = target: Escherichia coli LpxH (UDP-2,3-diacylglucosamine hydrolase) (Escherichia coli (strain K12), UniProt P43341); experiment: 50% Inhibitory Concentration (IC50) to LpxH, UMP/CMP-Glo Glycosyltransferase Assay kit; format: biochemical
Protocol: Example 121: 50% Inhibitory Concentration (IC50) to UDP-2,3-diacylglucosamine hydrolase (LpxH)
The inhibitory potency of molecules to UDP-2,3-diacylglucosamine hydrolase (LpxH) was determined using the UMP/CMP-Glo™ Glycosyltransferase Assay kit. LpxH hydrolyzes the pyrophosphate bond of UDP-2,3-diacylglucosamine (UDP-DAG) to yield 2,3-diacylglucosamine 1-phosphate (lipid X) and UMP. The assay kit could quantify the UMP production by convert the UMP to ATP and generate light in a luciferase reaction. The compound's effect on the LpxH activity is detected by measuring the light using a luminometer (Envision).

Chain of Escherichia coli LpxH (UDP-2,3-diacylglucosamine hydrolase) (P43341 whole entry): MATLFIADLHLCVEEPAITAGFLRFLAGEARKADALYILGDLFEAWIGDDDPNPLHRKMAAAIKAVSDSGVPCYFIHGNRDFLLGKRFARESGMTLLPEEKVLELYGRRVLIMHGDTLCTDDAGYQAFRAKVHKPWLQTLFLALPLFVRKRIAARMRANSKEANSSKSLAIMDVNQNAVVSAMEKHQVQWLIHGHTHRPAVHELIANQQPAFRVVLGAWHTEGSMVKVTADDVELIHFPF

Compound | MIC [1] [µg/mL] | MIC [2] [µg/mL] | IC50 [3] [nM]
NCCN1CCC2(CC1)CN(c1ccc(S(=O)(=O)N3CCN(c4cc(C(F)(F)F)cc(Cl)n4)CC3)cc1)C(=O)O2 [Example 24, 8-(2-Aminoethyl)-3-[4-[4-[6-chloro-4-(trifluoromethyl)-2-pyridyl]piperazin-1-yl]sulfonylphenyl]-1-oxa-3,8-diazaspiro[4.5]decan-2-one] | 2.24 (≈ 3.71 µM) | 2.24 (≈ 3.71 µM) | 14.9
NCCN1CCC[C@H]2OC(=O)N(c3ccc(S(=O)(=O)N4CCN(c5cc(C(F)(F)F)cc(Cl)n5)CC4)cc3)[C@H]2C1 [Example 25, (3aS,8aR)-5-(2-aminoethyl)-3-[4-[4-[6-chloro-4-(trifluoromethyl)-2-pyridyl]piperazin-1-yl]sulfonylphenyl]-3a,4,6,7,8,8a-hexahydrooxazolo[4,5-c]azepin-2-one] | 2.6 (≈ 4.31 µM) | 2.6 (≈ 4.31 µM) | 24.9
CNCCN1CCC[C@H]2OC(=O)N(c3ccc(S(=O)(=O)N4CCN(c5cc(C(F)(F)F)cc(Cl)n5)CC4)cc3)[C@H]2C1 [Example 26, (3aS,8aR)-3-[4-[4-[6-chloro-4-(trifluoromethyl)-2-pyridyl]piperazin-1-yl]sulfonylphenyl]-5-[2-(methylamino)ethyl]-3a,4,6,7,8,8a-hexahydrooxazolo[4,5-c]azepin-2-one] | 5.28 (≈ 8.56 µM) | 2.64 (≈ 4.28 µM) | 32.4
CNCC1CN(c2ccc(S(=O)(=O)N3CCN(c4cc(C(F)(F)F)cc(Cl)n4)CC3)cc2)C(=O)O1 (stereo not drawn) [Example 27, 3-[4-[4-[6-Chloro-4-(trifluoromethyl)-2-pyridyl]piperazin-1-yl]sulfonylphenyl]-5-(methylaminomethyl)oxazolidin-2-one] | 3.57 (≈ 6.69 µM) | 1.78 (≈ 3.33 µM) | 22.5
CN(C)CC1CN(c2ccc(S(=O)(=O)N3CCN(c4cc(C(F)(F)F)cc(Cl)n4)CC3)cc2)C(=O)O1 (stereo not drawn) [Example 28, 3-[4-[4-[6-Chloro-4-(trifluoromethyl)-2-pyridyl]piperazin-1-yl]sulfonylphenyl]-5-[(dimethylamino)methyl]oxazolidin-2-one] | 1.83 (≈ 3.34 µM) | 1.83 (≈ 3.34 µM) | 12.8
O=C1OC(CN2CCNCC2)CN1c1ccc(S(=O)(=O)N2CCN(c3cc(C(F)(F)F)cc(Cl)n3)CC2)cc1 (stereo not drawn) [Example 29, 3-[4-[4-[6-Chloro-4-(trifluoromethyl)-2-pyridyl]piperazin-1-yl]sulfonylphenyl]-5-(piperazin-1-ylmethyl)oxazolidin-2-one] | 1.96 (≈ 3.33 µM) | 1.96 (≈ 3.33 µM) | 25.5
O=C1OC(CN2C[C@@H](O)[C@@H](O)C2)CN1c1ccc(S(=O)(=O)N2CCN(c3cc(C(F)(F)F)cc(Cl)n3)CC2)cc1 (stereo partly drawn) [Example 30, 3-[4-[4-[6-Chloro-4-(trifluoromethyl)-2-pyridyl]piperazin-1-yl]sulfonylphenyl]-5-[[cis-3,4-dihydroxypyrrolidin-1-yl]methyl]oxazolidin-2-one] | 4.02 (≈ 6.63 µM) | 2.01 (≈ 3.32 µM) | 14.9
NC1CN(CC2CN(c3ccc(S(=O)(=O)N4CCN(c5cc(C(F)(F)F)cc(Cl)n5)CC4)cc3)C(=O)O2)C1 (stereo not drawn) [Example 31, 5-[(3-Aminoazetidin-1-yl)methyl]-3-[4-[4-[6-chloro-4-(trifluoromethyl)-2-pyridyl]piperazin-1-yl]sulfonylphenyl]oxazolidin-2-one] | 4.31 (≈ 7.5 µM) | 2.15 (≈ 3.74 µM) | 6.96
O=C1OC(CN2CC3(CNC3)C2)CN1c1ccc(S(=O)(=O)N2CCN(c3cc(C(F)(F)F)cc(Cl)n3)CC2)cc1 (stereo not drawn) [Example 32, 3-[4-[4-[6-Chloro-4-(trifluoromethyl)-2-pyridyl]piperazin-1-yl]sulfonylphenyl]-5-(2,6-diazaspiro[3.3]heptan-2-ylmethyl)oxazolidin-2-one] | 8.94 (≈ 14.9 µM) | 8.94 (≈ 14.9 µM) | 25
NCC1CN(CC2CN(c3ccc(S(=O)(=O)N4CCN(c5cc(C(F)(F)F)cc(Cl)n5)CC4)cc3)C(=O)O2)C1 (stereo not drawn) [Example 33, 5-[[3-(Aminomethyl)azetidin-1-yl]methyl]-3-[4-[4-[6-chloro-4-(trifluoromethyl)-2-pyridyl]piperazin-1-yl]sulfonylphenyl]oxazolidin-2-one] | 2.2 (≈ 3.73 µM) | 1.1 (≈ 1.87 µM) | 15.3
O=C1OC(CNC2CCNC2)CN1c1ccc(S(=O)(=O)N2CCN(c3cc(C(F)(F)F)cc(Cl)n3)CC2)cc1 (stereo not drawn) [Example 34, 3-[4-[4-[6-Chloro-4-(trifluoromethyl)-2-pyridyl]piperazin-1-yl]sulfonylphenyl]-5-[(pyrrolidin-3-ylamino)methyl]oxazolidin-2-one] | 4.39 (≈ 7.45 µM) | 4.39 (≈ 7.45 µM) | 27.2
NCC1CN(CC2CC(=O)N(c3ccc(S(=O)(=O)N4CCN(c5cc(C(F)(F)F)cc(Cl)n5)CC4)cc3)C2)C1 (stereo not drawn) [Example 35, 4-[[3-(Aminomethyl)azetidin-1-yl]methyl]-1-[4-[4-[6-chloro-4-(trifluoromethyl)-2-pyridyl]piperazin-1-yl]sulfonylphenyl]pyrrolidin-2-one] | 1.27 (≈ 2.16 µM) | 0.64 (≈ 1.09 µM) | < 3.41
CN1CCN(CC2CC(=O)N(c3ccc(S(=O)(=O)N4CCN(c5cc(C(F)(F)F)cc(Cl)n5)CC4)cc3)C2)CC1 (stereo not drawn) [Example 36, 1-[4-[4-[6-Chloro-4-(trifluoromethyl)-2-pyridyl]piperazin-1-yl]sulfonylphenyl]-4-[(4-methylpiperazin-1-yl)methyl]pyrrolidin-2-one] | 3.76 (≈ 6.26 µM) | 1.88 (≈ 3.13 µM) | 26.6
CN(C)CC1CN(CC2CC(=O)N(c3ccc(S(=O)(=O)N4CCN(c5cc(C(F)(F)F)cc(Cl)n5)CC4)cc3)C2)C1 (stereo not drawn) [Example 37, 1-[4-[4-[6-Chloro-4-(trifluoromethyl)-2-pyridyl]piperazin-1-yl]sulfonylphenyl]-4-[[3-[(dimethylamino)methyl]azetidin-1-yl]methyl]pyrrolidin-2-one] | 5.27 (≈ 8.57 µM) | 2.64 (≈ 4.29 µM) | 48.8
O=C1CC(CNCC2CNC2)CN1c1ccc(S(=O)(=O)N2CCN(c3cc(C(F)(F)F)cc(Cl)n3)CC2)cc1 (stereo not drawn) [Example 38, 4-[(Azetidin-3-ylmethylamino)methyl]-1-[4-[4-[6-chloro-4-(trifluoromethyl)-2-pyridyl]piperazin-1-yl]sulfonylphenyl]pyrrolidin-2-one] | 5.09 (≈ 8.67 µM) | 5.09 (≈ 8.67 µM) | 47.7
NC1(C2CN(CC3CC(=O)N(c4ccc(S(=O)(=O)N5CCN(c6cc(C(F)(F)F)cc(Cl)n6)CC5)cc4)C3)C2)CC1 (stereo not drawn) [Example 39, 4-[[3-(1-Aminocyclopropyl)azetidin-1-yl]methyl]-1-[4-[4-[6-chloro-4-(trifluoromethyl)-2-pyridyl]piperazin-1-yl]sulfonylphenyl]pyrrolidin-2-one] | 1.92 (≈ 3.13 µM) | 0.96 (≈ 1.57 µM) | 13
NC1CN(CC2CC(=O)N(c3ccc(S(=O)(=O)N4CCN(c5cc(C(F)(F)F)cc(Cl)n5)CC4)cc3)C2)C1 (stereo not drawn) [Example 40, 4-[(3-Aminoazetidin-1-yl)methyl]-1-[4-[4-[6-chloro-4-(trifluoromethyl)-2-pyridyl]piperazin-1-yl]sulfonylphenyl]pyrrolidin-2-one] | 1.79 (≈ 3.12 µM) | 1.79 (≈ 3.12 µM) | 20.9
O=C1CC(CN2CCNCC2)CN1c1ccc(S(=O)(=O)N2CCN(c3cc(C(F)(F)F)cc(Cl)n3)CC2)cc1 (stereo not drawn) [Example 41, 1-[4-[4-[6-Chloro-4-(trifluoromethyl)-2-pyridyl]piperazin-1-yl]sulfonylphenyl]-4-(piperazin-1-ylmethyl)pyrrolidin-2-one] | 2.55 (≈ 4.34 µM) | 1.27 (≈ 2.16 µM) | 10.2
CN(C)C1CN(CC2CC(=O)N(c3ccc(S(=O)(=O)N4CCN(c5cc(C(F)(F)F)cc(Cl)n5)CC4)cc3)C2)C1 (stereo not drawn) [Example 42, 1-[4-[4-[6-Chloro-4-(trifluoromethyl)-2-pyridyl]piperazin-1-yl]sulfonylphenyl]-4-[[3-(dimethylamino)azetidin-1-yl]methyl]pyrrolidin-2-one] | 10.4 (≈ 17.2 µM) | 10.4 (≈ 17.2 µM) | 15
CNC1CN(CC2CC(=O)N(c3ccc(S(=O)(=O)N4CCN(c5cc(C(F)(F)F)cc(Cl)n5)CC4)cc3)C2)C1 (stereo not drawn) [Example 43, 1-[4-[4-[6-Chloro-4-(trifluoromethyl)-2-pyridyl]piperazin-1-yl]sulfonylphenyl]-4-[[3-(methylamino)azetidin-1-yl]methyl]pyrrolidin-2-one] | 5.09 (≈ 8.67 µM) | 3.82 (≈ 6.51 µM) | 15.3
